Laboratory results: ChEMBL document CHEMBL1201862, “PubChem BioAssay data set” (2004)
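Method: 48-hour compound exposure of cells in 96-well plates, five concentrations, linear interpolation of endpoints. At the GI50, growth is halved.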 Calls of active or inactive are those of the source. No stated cut-off is given here; in the data, active = GI50 up to about 1.1 µM and inactive = higher.

Assays:
Assay in all cases: NCI anticancer screen, dose series, 48 h
786-0 = tested on: 786-0
A549 = tested on: A549
ACHN = tested on: ACHN
CAKI-1 = tested on: CAKI-1
COLO 205 = tested on: COLO 205
HCT-116 = tested on: HCT-116
HL-60 = tested on: HL-60
KM12 = tested on: KM12
M14 = tested on: M14
NCI-H23 = tested on: NCI-H23
OVCAR-3 = tested on: OVCAR-3
OVCAR-4 = tested on: OVCAR-4
RPMI-8226 = tested on: RPMI-8226
SF-268 = tested on: SF-268
SF-295 = tested on: SF-295
SF-539 = tested on: SF-539
SK-MEL-5 = tested on: SK-MEL-5
SNB-19 = tested on: SNB-19
UACC-62 = tested on: UACC-62
UO-31 = tested on: UO-31

SMILES	GI50 (786-0)	GI50 (A549)	GI50 (ACHN)	GI50 (CAKI-1)	GI50 (COLO 205)	GI50 (HCT-116)	GI50 (HL-60)	GI50 (KM12)	GI50 (M14)	GI50 (NCI-H23)	GI50 (OVCAR-3)	GI50 (OVCAR-4)	GI50 (RPMI-8226)	GI50 (SF-268)	GI50 (SF-295)	GI50 (SF-539)	GI50 (SK-MEL-5)	GI50 (SNB-19)	GI50 (UACC-62)	GI50 (UO-31)
O=C1c2c(n(Cc3ccccc3)c(=O)n2Cc2ccccc2)C(=O)N1Cc1ccccc1	> 100 µM (inactive)	41.9 µM (inactive)	91.6 µM (inactive)	65.8 µM (inactive)	> 100 µM (inactive)	40.3 µM (inactive)	0.782 µM (active)	55.5 µM (inactive)	> 100 µM (inactive)	38.6 µM (inactive)	49.2 µM (inactive)	46.5 µM (inactive)	22.8 µM (inactive)	64.1 µM (inactive)	72.3 µM (inactive)	> 100 µM (inactive)	50.5 µM (inactive)	89.1 µM (inactive)	41.4 µM (inactive)	50.2 µM (inactive)
O=C(/C=C/c1ccccc1Cl)c1ccc(Cl)cc1Cl	16.6 µM (inactive)	21.3 µM (inactive)	18.1 µM (inactive)	14.4 µM (inactive)	18.1 µM (inactive)	8.47 µM (inactive)	16.5 µM (inactive)	11.4 µM (inactive)	18.1 µM (inactive)	19.2 µM (inactive)	17.7 µM (inactive)	15.6 µM (inactive)	9.55 µM (inactive)	15 µM (inactive)	19.3 µM (inactive)	23 µM (inactive)	15.3 µM (inactive)	15.5 µM (inactive)	14.5 µM (inactive)	21.7 µM (inactive)
O=C1Oc2cc(O)cc(/C=C/c3ccc(O)cc3)c2[C@@]12c1c(O)cc(O)cc1OC2c1cccc(O)c1 (stereo not given in full)	24.5 µM (inactive)	54 µM (inactive)	52.5 µM (inactive)	83.8 µM (inactive)	26 µM (inactive)	29 µM (inactive)	28.9 µM (inactive)	25.6 µM (inactive)	28.6 µM (inactive)	24.7 µM (inactive)	61.2 µM (inactive)	56.2 µM (inactive)	13.4 µM (inactive)	36.6 µM (inactive)	32.2 µM (inactive)	31.8 µM (inactive)	12.5 µM (inactive)	30.7 µM (inactive)	25.3 µM (inactive)	29.7 µM (inactive)
O=C1NC(=O)C(c2c[nH]c3cc(Br)ccc23)=C1c1cn(C(c2ccccc2)(c2ccccc2)c2ccccc2)cn1	8.85 µM (inactive)	7.24 µM (inactive)	20.2 µM (inactive)	22.6 µM (inactive)	12.3 µM (inactive)	10.5 µM (inactive)	13.7 µM (inactive)	9.23 µM (inactive)	13.2 µM (inactive)	11.3 µM (inactive)	29.7 µM (inactive)	26.5 µM (inactive)	10.1 µM (inactive)	13.8 µM (inactive)	18.1 µM (inactive)	14.8 µM (inactive)	10.5 µM (inactive)	23.9 µM (inactive)	18.2 µM (inactive)	14.8 µM (inactive)
O=Nn1c2ccccc2c2ccccc21	95.1 µM (inactive)	17.5 µM (inactive)	56.2 µM (inactive)	44.4 µM (inactive)	14.1 µM (inactive)	85.9 µM (inactive)	59.3 µM (inactive)	34.3 µM (inactive)	74.1 µM (inactive)	58.2 µM (inactive)	71.9 µM (inactive)	90.8 µM (inactive)	70.1 µM (inactive)	> 100 µM (inactive)	42.9 µM (inactive)	> 100 µM (inactive)	63.1 µM (inactive)	88.9 µM (inactive)	45.7 µM (inactive)	34.4 µM (inactive)
